Laboratory results reported in paper PMC1977485, “The renal effects of N10-propargyl-5,8-dideazafolic acid (CB3717) and a non-nephrotoxic analogue ICI D1694, in mice” (British Journal of Cancer, 1991).
Each block holds one compound with its values, some of them ahead of it.

Legend:
C57/DBA2 mice [1] = test: Histological examination of the kidney (H&E); assay type: in vivo
Description: Br .Cncr(91) 4 3-88?McilnPesLd,19 The renal effects of N1l-propargyl-5,8-dideazafolic acid (CB3717) and a non-nephrotoxic analogue ICI D1694, in mice D.I. Jodrell', D.R. Newelll,*, S.E. Morgan', S. Clinton2, J.P.M. Bensted2, L.R. Hughes3 & A.H. Calvertl,* 'Clinical Pharmacology Team, Drug Development Section, and 2Histopathology Section, Institute of Cancer Research, 15 Cotswold Road, Sutton, Surrey SM2 SNG; and 3ICI Pharmaceuticals, Mereside, Alderley Park, Macclesfield, Cheshire SKIO 4TG, UK. Summary N-(5-[N-(3,4-dihydro-2-methyl-4-oxoquinazolin-6-ylmethyl)-N-methylamino]-2-thenoyl)-L-glutamic acid (ICI D1694) is an analogue of the thymidylate synthase inhibitor, N'?-propargyl-5,8-dideazafolic acid (CB3717). […] Previous studies have shown ICI D1694 to be non-toxic to the kidney following a single administration but its renal effects after chronic administration are unknown. […] The '4C-inulin clearance assay developed was used to show a linear relationship between CB3717 dosage and renal damage (r=-0.989) following a single bolus dose (50-200mgkg-'), in mice. CB3717-induced renal damage is persistent (>6 weeks) and renal scarring was noted. […] However, the clinical use of CB3717 was limited by its nephrotoxicity, which was observ- ed in Phase I studies of both weekly (Vest et al., 1988) and 3-weekly administration schedules (Calvert et al., 1986; Sessa et al., 1988). Renal toxicity manifested primarily as a reduc- tion in glomerular filtration rate (GFR). However, tubular damage was also identified by the measurement of the urin- ary enzymes, N-acetyl glucosaminidase (NAG) and leucine aminopeptidase (LAP). […] In addition, urinary NAG and LAP levels were elevated in 50% of patients studied, although this elevation was not dose related (Calvert et al., 1986). CB3717-induced nephrotoxicity was thought to be due to the compound's relative insolubility at acid pH. […] To circumvent toxicity related to drug precipitation in the kidney, a series of more soluble analogues of CB3717 have been synthesised. […] One such analogue, N-(5-[N-(3,4-dihydro-2- methyl- 4 -oxoquinazolin- 6 -ylmethyl)- N -methylamino]-2-the- noyl) L-glutamic acid (ICI D1694, Figure lii) has been selected for preclinical development (Jackman et al., 1991). The plasma concentrations of urea and creatinine are com- monly measured to assess renal function during toxicological screening of new drugs. However, these parameters are rela- tively insensitive, because, in mice, a rise in plasma urea and creatinine concentration only occurs following the loss of 70-75% of functional renal mass (Everett & Harrison, 1983). Specificity is also poor because an elevation in plasma urea may be caused by 'pre-renal' (increased protein catabolism, gastric or intestinal bleeding and dehydration) or 'post-renal' (obstruction to renal outflow) causes, as well as parenchymal renal damage (Everett & Harrison, 1983). […] In man, the measurement of GFR has become accepted as a routine method for the assessment of renal function. The classical technique using inulin, which is solely cleared from the plasma by glomerular filtration, involves its constant infusion with simultaneous urine collec- tion (Jones, 1985). However, in mice, a constant infusion of inulin and simultaneous urine collection would require anaes- thesia or rigid restraint and complete emptying of the bladder before and at completion of the test (Ragan, 1989). Therefore a b Correspondence: D.I. Jodrell, Clinical Pharmacology, Drug Develop- ment Section, E Block, Institute of Cancer Research, 15 Cotswold Road, Sutton, Surrey SM2 5NG, UK. *Present address: Cancer Research Unit, The Medical School, Uni- versity of Newcastle upon Tyne, Framlington Place, Newcastle upon Tyne NE2 4HH, UK. Received 5 June 1991; and in revised form 19 July 1991. […]

mice = tested on: mice; design: method as in Jodrell et al., 1990; conditions: single bolus doses of 500 mg kg-1; ref Jodrell et al., 1990; cited from earlier work
[2] = compared with CB3717; cited from earlier work
C57/DBA2 mice [3] = test: GFR by 14C-inulin clearance, single timed plasma sample, in drug treated mice; assay type: in vivo
Description: Br .Cncr(91) 4 3-88?McilnPesLd,19 The renal effects of N1l-propargyl-5,8-dideazafolic acid (CB3717) and a non-nephrotoxic analogue ICI D1694, in mice D.I. Jodrell', D.R. Newelll,*, S.E. Morgan', S. Clinton2, J.P.M. Bensted2, L.R. Hughes3 & A.H. Calvertl,* 'Clinical Pharmacology Team, Drug Development Section, and 2Histopathology Section, Institute of Cancer Research, 15 Cotswold Road, Sutton, Surrey SM2 SNG; and 3ICI Pharmaceuticals, Mereside, Alderley Park, Macclesfield, Cheshire SKIO 4TG, UK. Summary N-(5-[N-(3,4-dihydro-2-methyl-4-oxoquinazolin-6-ylmethyl)-N-methylamino]-2-thenoyl)-L-glutamic acid (ICI D1694) is an analogue of the thymidylate synthase inhibitor, N'?-propargyl-5,8-dideazafolic acid (CB3717). […] Previous studies have shown ICI D1694 to be non-toxic to the kidney following a single administration but its renal effects after chronic administration are unknown. […] The '4C-inulin clearance assay developed was used to show a linear relationship between CB3717 dosage and renal damage (r=-0.989) following a single bolus dose (50-200mgkg-'), in mice. CB3717-induced renal damage is persistent (>6 weeks) and renal scarring was noted. […] However, the clinical use of CB3717 was limited by its nephrotoxicity, which was observ- ed in Phase I studies of both weekly (Vest et al., 1988) and 3-weekly administration schedules (Calvert et al., 1986; Sessa et al., 1988). Renal toxicity manifested primarily as a reduc- tion in glomerular filtration rate (GFR). However, tubular damage was also identified by the measurement of the urin- ary enzymes, N-acetyl glucosaminidase (NAG) and leucine aminopeptidase (LAP). […] In addition, urinary NAG and LAP levels were elevated in 50% of patients studied, although this elevation was not dose related (Calvert et al., 1986). CB3717-induced nephrotoxicity was thought to be due to the compound's relative insolubility at acid pH. […] The plasma concentrations of urea and creatinine are com- monly measured to assess renal function during toxicological screening of new drugs. […]

C57/DBA2 mice [4] = test: Plasma urea concentration; assay type: in vivo; conditions: single dose 100 mg kg-1, at 9, 10, 11 and 14 weeks, small number of animals
Description: Br .Cncr(91) 4 3-88?McilnPesLd,19 The renal effects of N1l-propargyl-5,8-dideazafolic acid (CB3717) and a non-nephrotoxic analogue ICI D1694, in mice D.I. Jodrell', D.R. Newelll,*, S.E. Morgan', S. Clinton2, J.P.M. Bensted2, L.R. Hughes3 & A.H. Calvertl,* 'Clinical Pharmacology Team, Drug Development Section, and 2Histopathology Section, Institute of Cancer Research, 15 Cotswold Road, Sutton, Surrey SM2 SNG; and 3ICI Pharmaceuticals, Mereside, Alderley Park, Macclesfield, Cheshire SKIO 4TG, UK. Summary N-(5-[N-(3,4-dihydro-2-methyl-4-oxoquinazolin-6-ylmethyl)-N-methylamino]-2-thenoyl)-L-glutamic acid (ICI D1694) is an analogue of the thymidylate synthase inhibitor, N'?-propargyl-5,8-dideazafolic acid (CB3717). […] Previous studies have shown ICI D1694 to be non-toxic to the kidney following a single administration but its renal effects after chronic administration are unknown. […] The '4C-inulin clearance assay developed was used to show a linear relationship between CB3717 dosage and renal damage (r=-0.989) following a single bolus dose (50-200mgkg-'), in mice. CB3717-induced renal damage is persistent (>6 weeks) and renal scarring was noted. […] The plasma concentrations of urea and creatinine are com- monly measured to assess renal function during toxicological screening of new drugs. […]

patients = conditions: cited from earlier work
[5] = design: method as in Newell et al., 1986; conditions: radiolabelled CB3717, mice, 23 days after administration; ref Newell et al., 1986; cited from earlier work
[6] = 100 mg kg-1 weekly for 6 weeks, 1 week after final dose

SMILES: Cc1nc2ccc(CN(C)c3ccc(C(=O)N[C@@H](CCC(=O)O)C(=O)O)s3)cc2c(=O)[nH]1 [ICI D1694, N-(5-[N-(3,4-dihydro-2-methyl-4-oxoquinazolin-6-ylmethyl)-N-methylamino]-2-thenoyl)-L-glutamic acid]
kidney histology (C57/DBA2 mice [1]; [6]): no histological evidence of renal damage
kidney histology (C57/DBA2 mice [1]; 250 mg kg-1 weekly for 6 weeks, 1 week after final dose): normal in 5/5 mice
acute renal toxicity (mice): absence of acute renal toxicity
water solubility [2]: more water soluble

reduction in GFR (C57/DBA2 mice [3]; 200 mg kg-1 single ip bolus, 5 days after (Figure 4)): > 70%
GFR (C57/DBA2 mice [3]; single dose of 10 mg kg-1 (30 mg m-2), 5 days after): normal
plasma biochemistry (urea and creatinine concentrations) (C57/DBA2 mice [4]): normal
kidney histology (C57/DBA2 mice [1]; single dose 10 mg kg-1, 5 days after): normal
kidney histology (C57/DBA2 mice [1]; single dose 50 mg kg-1, 5 days after): focal tubular dilatation
kidney histology (C57/DBA2 mice [1]; single dose 100 mg kg-1, 24 h after administration): tubular dilatation
kidney histology (C57/DBA2 mice [1]; single dose 100 mg kg-1, day 3): focal tubular dilatation
kidney histology (C57/DBA2 mice [1]; single dose 100 mg kg-1, day 20): glomerular atrophy
kidney histology (C57/DBA2 mice [1]; single dose 100 mg kg-1, six weeks (42 days)): deeply pitted scars
SMILES: C#CCN(Cc1ccc2nc(N)[nH]c(=O)c2c1)c1ccc(C(=O)N[C@@H](CCC(=O)O)C(=O)O)cc1 [CB3717, N10-propargyl-5,8-dideazafolic acid]
persistence of renal damage (C57/DBA2 mice [3]; single dose 100 mg kg-1): > 6 weeks
kidney histology (C57/DBA2 mice [1]; [6]): Cortical scarring with tubular dilatation and amorphous casts
kidney histology (C57/DBA2 mice [1]; single dose 100 mg kg-1, 14 weeks, small number of animals): cortical scarring and the presence of amorphous casts
kidney histology (C57/DBA2 mice [1]; single dose 100 mg kg-1, days 5 and 7): Tubular dilatation persisted through days 5 and 7 with increased tubular mitotic activity
courses with reductions in GFR (creatinine clearance) of >20% (patients; 6/17 courses at 400 mg m2 despite alkalinisation of the urine, ref Sessa et al., 1988): 35%
lowest dose causing renal damage (reduction in GFR) (patients; bolus injection at weekly intervals, in man, ref Vest et al., 1988): 10 mg m2
patients with elevated urinary NAG and LAP levels (patients; patients studied, not dose related, ref Calvert et al., 1986): 50%
patients with >20% reduction in GFR (patients; seven of 12 patients receiving more than 400 mg m2, ref Calvert et al., 1986): 58%
radioactivity in the kidneys [5]: still detectable
